Earlier results as cited in patent publication US8778989B2, “Cosmetic composition comprising a lipid fraction from vegetable source and anticrystaling agent” (Natura Cosmeticos S.A., priority 2004, dated 2014).
Read-outs that look alike come from different tables or passages of the source.

| Compound | Relative Velocity of Oxidation of Fatty Acids (T = 20° C.) | Relative Velocity of Oxidation of Fatty Acids (T = 37° C.) | Relative Velocity of Oxidation of Fatty Acids (T = 100° C.) | oxidation rate relative to oleic acid (as fast as oleic acid) [times] |
| --- | --- | --- | --- | --- |
| CCCCC/C=C\C/C=C\CCCCCCCC(=O)O [Linoleic, 9,12-linoleic acid] | 48 | 42 | 64 | 15 |
| CCCCCCCC/C=C\CCCCCCCC(=O)O [Oleic, oleic acid] | 4 |  | 6 |  |
| CCCCCCCCCCCCCCCCCC(=O)O [Stearic] |  |  | 0.6 |  |
